Assay results taken from US10800752B2, “Substituted naphtho[2,3-b]furans as water-soluble prodrugs for preventing and/or treating cancer” (BOSTON BIOMEDICAL, INC., priority 2015, dated 2020).

Columns and labels:
[1] = Evaluation of a conversion rate to 2-acetylnaphtho[2,3-b]furan-4,9-dione in pH 7.4 phosphate buffer solution; format: physicochemical; conditions: 1 umol/L, 37° C.
Method in brief: (§1)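 Compounds at 1 umol/L were incubated at 37° C in human plasma, CD1 mouse plasma or pH 7.4 phosphate buffer, sampled up to 120 minutes, acid/acetonitrile-deproteinised and analysed by LC-MS (ESI positive). Conversion (%) derived from the peak area ratio of the active form to phenytoin internal standard.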

[2] = Solubility test; conditions: 50 mmol/L glycine buffer solution (pH 2.0), room temperature, 24 hours shaking
Experimental: A water-soluble prodrug was added into 50 mmol/L glycine buffer solution (pH 2.0). After shaking at room temperature for 24 hours, the mixture was filtered through a membrane filter, and then the filtrate was measured with HPLC.
The measurement condition of HPLC is as described below. HPLC condition column: Acquity UPLC BEH C18, 1.7 um, 50×2.1 mm

[3] = Evaluation of a conversion rate to 2-acetylnaphtho[2,3-b]furan-4,9-dione in human plasma; format: in vitro ADME; conditions: 1 umol/L, 37° C.
Method in brief: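 Compounds at 1 umol/L incubated at 37° C in human plasma, CD1 mouse plasma or pH 7.4 phosphate buffer, sampled up to 120 minutes. After acidified acetonitrile protein removal, parent loss and conversion to 2-acetylnaphtho[2,3-b]furan-4,9-dione measured by LC-MS (ESI positive).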

[4] = Pharmacokinetics test, intravenous administration; conditions: for Plasma Compound Concentration: Activated form 1 in plasma, 9.6 mg/kg (i.v.)
Experimental: For water-soluble prodrugs described in the EXAMPLES, the concentration of 2-acetylnaphtho[2,3-b]furan-4,9-dione (Activated form 1) in plasma was measured. Animal species, an administration method, a method of making standard solutions, and a method of measuring the concentration in plasma are as described below.
Animal: Seven-week-aged male CD1 (ICR) mice were used as an experimental animal.
Administration method: A test substance was weighed, and then dissolved in 50 mmol/L glycine buffered saline (pH 2.0) to produce an administration solution. The body weight of a mouse was measured, and the prepared administration solution was intravenously administered.
Blood collecting method: Heparin was added to a blood-collecting vessel, and blood was collected from a mouse. To the obtained blood, 46% of Citric acid was added in 1% volume. It was then centrifuged to obtain plasma. To the collected plasma, 1 mol/L HCl was added in 10% volume to produce a plasma sample. A sample obtained by adding 10% volume of 1 mol/L HCl to blank plasma was used as a blank sample.
Making of a standard solution: One mg of a test sample was weighed, and dissolved in 10 mL of acetonitrile using a measuring flask to make a standard solution of 100 ug/mL.
Measurement of the concentration in plasma: One hundred ug/mL of the standard solution was diluted in 50% acetonitrile solution to make calibration curve samples of target concentrations. Twenty uL of a blank sample was added to 18 uL of the calibration curve sample to make a plasma calibration curve sample. Eighteen uL of 50% acetonitrile solution was added to 20 uL of the administered plasma sample to make a sample for plasma analysis. One hundred uL of acetonitrile (containing 1% volume of 10 mol/L HCl) containing an internal standard was added to the plasma calibration curve sample and the sample for plasma analysis, respectively. It should be noted that phenytoin was used as the internal standard and its concentration was prepared in 100 nmol/L. 10 uL of each sample was analyzed with LC-MS. A calibration curve was made from a value (peak ratio) of the peak area of a test substance in MS divided by the peak area of the internal standard, and the concentrations of plasma calibration curve samples. The concentration in a sample was calculated from the peak ratio of each sample and the calibration curve.

[5] = Solution stability test; format: physicochemical; conditions: for % Residual ratio: 25 umol/L
Experimental: For Example 6, Example 11, and Example 22, the stability in each pH was measured. Test compounds at a concentration of 25 umol/L in respective buffer solutions prepared at pH 2.0, 3.0, 5.0, 7.4, and 9.0 were allowed to stand at 25° C. After 0, 3, 6, 9, 12, and 24 hours, they were measured with HPLC.
The buffer solutions used at respective pHs are as described below. pH 2.0: 50 mmol/L glycine buffer solution pH 3.0: 50 mmol/L citrate buffer solution pH 5.0: 50 mmol/L citrate buffer solution pH 7.4: 50 mmol/L phosphate buffer solution pH 9.0: 50 mmol/L glycine buffer solution
The measurement condition of HPLC is as described below.
Column temperature: 40° C.
Mobile phase: A: 0.1% trifluoroacetic acid-containing water

[6] = Evaluation of a conversion rate to 2-acetylnaphtho[2,3-b]furan-4,9-dione in CD1 mouse plasma; format: in vitro ADME; conditions: CD1 mouse plasma, 1 umol/L, 37° C.
Method in brief: as §1

CC(=O)c1cc2c(OC(=O)NC[C@H](N)C(=O)O)c3ccccc3c(OC(=O)NC[C@H](N)C(=O)O)c2o1.Cl.Cl [Example 6]
% Measurement value of test compound (decrease rate) ([1]; Phosphate buffer solution (pH 7.4), incubation time 120 min): 0% | % Measurement value of test compound (decrease rate) ([1]; phosphate buffer solution (pH 7.4), incubation time 0 min): 100% | % Measurement value of test compound (decrease rate) ([1]; phosphate buffer solution (pH 7.4), incubation time 5 min): 0% | % Measurement value of test compound (decrease rate) ([1]; phosphate buffer solution (pH 7.4), incubation time 10 min): 0% | % Measurement value of test compound (decrease rate) ([1]; phosphate buffer solution (pH 7.4), incubation time 30 min): 0% | % Measurement value of test compound (decrease rate) ([1]; phosphate buffer solution (pH 7.4), incubation time 60 min): 0% | Solubility in pH 2.0 buffer solution [2]: 2.8 mg/mL | % Measurement value of test compound (decrease rate) ([3]; Human plasma, incubation time 120 min): 0% | % Measurement value of test compound (decrease rate) ([3]; human plasma, incubation time 0 min): 100% | % Measurement value of test compound (decrease rate) ([3]; human plasma, incubation time 5 min): 0% | % Measurement value of test compound (decrease rate) ([3]; human plasma, incubation time 10 min): 0% | % Measurement value of test compound (decrease rate) ([3]; human plasma, incubation time 30 min): 0% | % Measurement value of test compound (decrease rate) ([3]; human plasma, incubation time 60 min): 0% | Plasma Compound Concentration ([4]; 0.083 hr, animal 1): 4.95 µM | Plasma Compound Concentration ([4]; 0.083 hr, animal 2): 5.87 µM | Plasma Compound Concentration ([4]; 0.083 hr, animal 3): 5.79 µM | Plasma Compound Concentration ([4]; 0.083 hr, mean): 5.54 µM | Plasma Compound Concentration ([4]; 0.5 hr, animal 1): 1.17 µM | Plasma Compound Concentration ([4]; 0.5 hr, animal 2): 1.07 µM | Plasma Compound Concentration ([4]; 0.5 hr, animal 3): 1.66 µM | Plasma Compound Concentration ([4]; 0.5 hr, mean): 1.30 µM | Plasma Compound Concentration ([4]; 1.0 hr, animal 1): 0.53 µM | Plasma Compound Concentration ([4]; 1.0 hr, animal 2): 0.28 µM | Plasma Compound Concentration ([4]; 1.0 hr, animal 3): 0.38 µM | Plasma Compound Concentration ([4]; 1.0 hr, mean): 0.40 µM | Plasma Compound Concentration ([4]; 2.0 hr, animal 1): 0.25 µM | Plasma Compound Concentration ([4]; 2.0 hr, animal 2): 0.50 µM | Plasma Compound Concentration ([4]; 2.0 hr, animal 3): 0.41 µM | Plasma Compound Concentration ([4]; 2.0 hr, mean): 0.39 µM | production of 2-acetylnaphtho[2,3-b]furan-4,9-dione (Activated form 1) (in words) ([4]; intravenously administered to mice): rapidly produced | stability in solution (in words) ([5]; pH 2.0, 25° C.): very stable | % Residual ratio ([5]; pH 2.0, 25° C., 0 hr): 100% | % Residual ratio ([5]; pH 2.0, 25° C., 3 hr): 100% | % Residual ratio ([5]; pH 2.0, 25° C., 6 hr): 100% | % Residual ratio ([5]; pH 2.0, 25° C., 9 hr): 100% | % Residual ratio ([5]; pH 2.0, 25° C., 12 hr): 100% | % Residual ratio ([5]; pH 2.0, 25° C., 24 hr): 99.8% | stability in solution (in words) ([5]; pH 3.0, 25° C.): sufficient stability | % Residual ratio ([5]; pH 3.0, 25° C., 0 hr): 100% | % Residual ratio ([5]; pH 3.0, 25° C., 3 hr): 99.0% | % Residual ratio ([5]; pH 3.0, 25° C., 6 hr): 98.2% | % Residual ratio ([5]; pH 3.0, 25° C., 9 hr): 97.5% | % Residual ratio ([5]; pH 3.0, 25° C., 12 hr): 96.6% | % Residual ratio ([5]; pH 3.0, 25° C., 24 hr): 93.6% | % Residual ratio ([5]; pH 5.0, 25° C., 0 hr): 100% | % Residual ratio ([5]; pH 5.0, 25° C., 3 hr): 27.3% | % Residual ratio ([5]; pH 5.0, 25° C., 6 hr): 10.8% | % Residual ratio ([5]; pH 5.0, 25° C., 9 hr): 3.6% | % Residual ratio ([5]; pH 5.0, 25° C., 12 hr): 0% | % Residual ratio ([5]; pH 5.0, 25° C., 24 hr): 0% | % Residual ratio ([5]; pH 7.4, 25° C., 0 hr): 100% | % Residual ratio ([5]; pH 7.4, 25° C., 3 hr): 0% | % Residual ratio ([5]; pH 7.4, 25° C., 6 hr): 0% | % Residual ratio ([5]; pH 7.4, 25° C., 9 hr): 0% | % Residual ratio ([5]; pH 7.4, 25° C., 12 hr): 0% | % Residual ratio ([5]; pH 7.4, 25° C., 24 hr): 0% | % Residual ratio ([5]; pH 9.0, 25° C., 0 hr): 100% | % Residual ratio ([5]; pH 9.0, 25° C., 3 hr): 0% | % Residual ratio ([5]; pH 9.0, 25° C., 6 hr): 0% | % Residual ratio ([5]; pH 9.0, 25° C., 9 hr): 0% | % Residual ratio ([5]; pH 9.0, 25° C., 12 hr): 0% | % Residual ratio ([5]; pH 9.0, 25° C., 24 hr): 0% | % Measurement value of test compound (decrease rate) ([6]; incubation time 0 min): 100% | % Measurement value of test compound (decrease rate) ([6]; incubation time 5 min): 0% | % Measurement value of test compound (decrease rate) ([6]; incubation time 10 min): 0% | % Measurement value of test compound (decrease rate) ([6]; incubation time 30 min): 0% | % Measurement value of test compound (decrease rate) ([6]; incubation time 60 min): 0% | % Measurement value of test compound (decrease rate) ([6]; incubation time 120 min): 0%
